According to US20190274974A1, “Treatment of Pain Associated with Trigeminal Neuralgia” (priority 2011, published 2019):
“Also recorded” adds a separate entry of the source.

Assays:
CCI-SN rats [1] = assay: Randall-Selitto test in CCI-SN rats; type: in vivo, rat; conditions: 10 mg/kg i.p., acute
Experimental: (§1) Rats are anaesthetized with sodium pentobarbital (50 mg/kg i.p.). Unilateral CCI-SN is performed under direct visual control using a Zeiss microscope (10-25×) essentially as described by Bennett and Xie (G. J. Bennett et al., Pain, 33 (1988) 87-107).
Pain is produced by applying increasing pressure (0-450 g/mm^2) with a punch (0.2 mm tip diameter) on the rat's hind paw. The measured value to be determined is the pressure at which either a hindpaw withdrawal response or a vocalisation reaction of the animal occurs.
Tapentadol (10 mg/kg i.p.) or its vehicle (0.9% NaCl i. p.) was injected in CCI-SN rats acutely 14 days after surgery. Pressure threshold values to trigger hindpaw withdrawal (A) or vocalization (B) were determined using the Randall-Selitto test at various times after acute i.p. administration (Time=0) of Tapentadol or saline.
The results are summarized and depicted in FIG. 1 (A and B). Each point is the mean±S.E.M. of 3-4 independent determinations. * P<0.05 compared to pressure threshold values in the same rats before surgery (C on abscissa); Dunnett's test.

CCI-SN rats [2] = type: in vivo, rat
Experimental: as §1
Mechanical sensitivity is determined with a graded series of von Frey filaments (Bioseb, Bordeaux, France; bending force: 0.07-60.0 g). The stimuli are applied within the SN territory (midplantar surface of the left hindpaw) three times at the nerve-injured side (ipsilateral, left) and then at the contralateral side for a total of 6 applications of each filament per rat, always beginning with the filament producing the lowest force. The von Frey filaments are applied at least 3 seconds after the rats returned to their initial resting state. For each session, the complete series of von Frey filaments is tested in increasing force order. The minimal force filament causing a hindpaw withdrawal response allows determination of the mechanical response threshold. The 60 g filament is the cut-off threshold.
For studying the effects of acute treatment with tapentadol in CCI-SN rats, tapentadol (1, 3 and 10 mg/kg i.p.) or its vehicle (0.9% NaCl i. p.) was injected acutely 14 days after surgery. Sham-operated rats were treated in parallel. Pressure threshold values to trigger nocifensive responses to von Frey filaments application onto the plantar surface of ipsilateral hindpaw were determined at various times after acute injection of tapentadol or saline. Cut-off was fixed at 60 g pressure.
For studying the effects of subchronic treatment with tapentadol in CCI-SN rats, starting on day 16 (Time=D) after surgery, they received i.p. injections of tapentadol (10 mg/kg, twice daily, at 10:00 AM and 6:00 PM) or saline (at the same day times as the drug) for four days. On the following day (day 20 after surgery), both tapentadol- and saline-pretreated CCI-SN rats were i.p. injected with Tapentadol (10 mg/kg; Time=0) and then subjected to von Frey filaments'test applied to ipsilateral hindpaw for determination of pressure threshold values at various times thereafter.
In a second part of this study (B), unilateral chronic constriction injury to the sciatic nerve was performed two weeks before acute treatment with reboxetine (10 mg/kg i.p.), tapentadol (10 mg/kg i.p.) or saline (0.5 ml i.p./rat). Pressure threshold values were then determined at various times using von Frey filaments test applied to ipsilateral hindpaw.
Morphine (1, 3 and 10 mg/kg s.c.) or its vehicle (0.9% NaCl) was injected acutely 14 days after CCI-SN surgery. Sham-operated rats were treated in parallel. Pressure threshold values to trigger nocifensive responses to von Frey filaments application onto the plantar surface of ipsilateral hindpaw were determined at various times after acute injection of morphine or saline.
14 days after CCI-SN surgery, rats were injected with reboxetine (10 mg/kg i.p.) or its vehicle (0.9% NaCl) followed, 15 min later, by morphine (1 mg/kg s.c.) or its vehicle (0.9% NaCl) and subjected to von Frey filament tests for the following 4 hours. Sham-operated rats were treated in parallel.
The results are depicted in FIG. 11.

[3] = system: mRNA encoding ATF3, IL-6, BDNF and iNOS; assay: Real-time qRT-PCR of mRNA levels in ganglia and central tissues of CCI-ION rats; type: in vivo, rat; conditions: subchronic 10 mg/kg i.p. twice daily; ipsilateral trigeminal ganglion and spinal nucleus of the trigeminal nerve; day 20
BDNF-induced allodynia = assay: Mechanical allodynia induced by intrathecal administration of BDNF in healthy rats (von Frey filaments test); type: in vivo, rat
Experimental: In a first part of this study, BDNF (0.3 ng in 25 μl of saline per rat) or saline (25 μl) was injected intrathecally in adult male rats slightly anesthetized with isoflurane (according to Mestre et al. (1994), J. Pharmacol. Toxicol. Meth., 32, 197-200), and animals were subjected to von Frey filaments test applied to hindpaws at various times thereafter.
In a second part of this study, tapentadol (3 or 10 mg/kg i.p.) or saline was administered to rats on the 7th day (Time=0 on abscissa) after intrathecal injection of BDNF (Time=C) as described above. Pressure threshold values were determined using von Frey filaments test applied to hindpaws.
In a first part of this study (A), reboxetine (10 mg/kg i.p.; mesylate, Ascent Scientific, Bristol, UK), tapentadol (10 mg/kg i.p.) or saline (0.5 ml i.p./rat) was injected on the 7th day after intrathecal administration of BDNF (0.3 ng in 25 μl of saline per rat). Pressure threshold values were determined at various times thereafter using von Frey filaments test applied to hindpaws.

[4] = target: recombinantly produced μ-opioid receptor (Homo sapiens, UniProt P35372); conditions: cited from earlier work
Chain of recombinantly produced μ-opioid receptor (P35372 whole entry): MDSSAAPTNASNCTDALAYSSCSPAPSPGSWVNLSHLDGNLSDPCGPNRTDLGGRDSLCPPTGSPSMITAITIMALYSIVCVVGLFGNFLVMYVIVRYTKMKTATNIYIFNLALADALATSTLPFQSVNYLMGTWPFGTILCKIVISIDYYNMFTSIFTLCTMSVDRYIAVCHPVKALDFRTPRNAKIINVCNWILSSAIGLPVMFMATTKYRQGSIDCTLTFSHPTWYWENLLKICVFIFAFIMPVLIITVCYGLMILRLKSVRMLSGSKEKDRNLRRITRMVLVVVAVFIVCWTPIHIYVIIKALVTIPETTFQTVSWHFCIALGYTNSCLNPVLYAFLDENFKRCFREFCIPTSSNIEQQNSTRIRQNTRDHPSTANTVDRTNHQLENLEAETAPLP

In the case of CC[C@@H](c1cccc(O)c1)[C@@H](C)CN(C)C [tapentadol, (−)-(1R,2R)-3-(3-dimethylamino-1-ethyl-2-methyl-propyl)-phenol], the “duration of the increase in pressure threshold values (hindpaw withdrawal and vocalization)” value (CCI-SN rats [1]; 14 days after surgery) is reported as “at least 60 min”, the “pressure threshold values to trigger vocalization relative to untreated healthy rats” value (CCI-SN rats [1]; first 45 min after administration) is reported as “+20%” and the “pressure threshold values to cause hindpaw withdrawal compared to intact healthy rats before surgery” value (CCI-SN rats [1]; first hour after treatment) is reported as “did not significantly differ from those determined in intact healthy rats”. For the same molecule, the “increase in pressure threshold value” (CCI-SN rats [2]; 1 mg/kg i.p., acute, first 15-30 min after injection, non significant) was “approximately 40%”, the “effect on pressure threshold values” (CCI-SN rats [2]; 3 mg/kg i.p., acute) was “increased pressure threshold values, but to a lower extent than 10 mg/kg i.p” and the “anti-allodynic effect of last administration after subchronic pretreatment (sensitization/desensitization)” value (CCI-SN rats [2]; 10 mg/kg i.p. twice daily for four days or saline, then 10 mg/kg i.p. on day 20) was “produced the same anti-allodynic effects in saline-pretreated and tapentadol-pretreated rats; also recorded: neither in CCI-SN rats nor in those with CCI-ION, any sign of sensitization or desensitization”. The “pressure threshold values compared to healthy control values” (CCI-SN rats [2]; 10 mg/kg i.p., acute, 15-30 min after administration) was “no longer differed from healthy control values”, the “mechanical allodynia compared to saline-treated CCI-SN rats” value (CCI-SN rats [2]; 10 mg/kg i.p., acute, 90 min after injection) was “did not significantly differ from that measured in saline-treated CCI-SN rats” and the “pressure threshold values after the last injection under subchronic treatment” value (CCI-SN rats [2]; 10 mg/kg i.p., first 45 min after last injection) was “markedly increased pressure threshold values”. For the same molecule, the “dose dependence of anti-allodynic effect” value (CCI-SN rats [2]; 1-10 mg/kg i.p. dose range, acute) was “clear dose-dependent anti-allodynic effect”, the “ATF3, IL-6, BDNF and iNOS mRNA levels in CCI-ION rats” value [3] was “no significant effects” and the “time at which the maximal increase in pressure threshold was reached” value (BDNF-induced allodynia; 10 mg/kg i.p.) was 15 min. The “pressure threshold values compared to untreated healthy rats” value (BDNF-induced allodynia; 10 mg/kg i.p., 15-30 min after injection) was “return of pressure threshold values up to levels determined in untreated healthy rats”, the “reversal of BDNF-induced allodynia, dose dependence” value (BDNF-induced allodynia; 3 or 10 mg/kg i.p., 7th day after intrathecal BDNF) was “reversed BDNF-induced allodynia in a dose-dependent manner” and the “affinity to the μ-opioid receptor, times less than that of morphine” value [4] was 18 times.
